Source: patent US4548946A, “Antiinflammatory and/or analgesic 1,8-Dihydro-(or 3,8-dihydro)-8-aryl-2-[(substituted)thio]-indeno[1,2-d]imidazoles and their corresponding sulfoxides and sulfones” (E. I. Du Pont de Nemours and Company, priority 1982, dated 1985)
Read-outs that look alike come from different tables or passages of the source.

Tests used:
[1] = system: adjuvant-induced arthritis; experiment: Established adjuvant-induced arthritis in rats (paw volume); type: in vivo, Charles River Lewis male rats; conditions: for ED50: read-out: Adjuvant Arthritic ED50; for Paw volume reduction at indicated daily dose (Adjuvant Arthritic): oral, daily dose 9 (mg/kg), 7 days, printed in the ED50 column, footnote 1
[2] = system: writhing induced by phenylquinone; experiment: Phenylquinone writhing test (analgesic activity); type: in vivo, female white mice; conditions: read-out: Phenylquinone Writhing ED50
Method: PHENYLQUINONE WRITHING TEST
A test compound suspended in 1% methylcellulose was given orally to fasted (17-21 hours) female white mice, 5-20 animals per double blind test. Aqueous (0.01% phenyl-p-benzoquinone)phenylquinone, 0.20 ml per mouse, was injected intraperitoneally 6 minutes before observations were begun.

[3] = rat, oral gavage daily for 7 days, ED50% decrease from control paw volume, uninjected left hind paw, one day after last dose
[4] = mouse, oral, fasted 17-21 hours, effective analgesic dose for 50% of the mice

| SMILES | ED50 ([1]; Rattus norvegicus, po) | ED50 ([2]; Mus musculus, po) | ED50 [1, 3] | ED50 [2, 4] | Paw volume reduction at indicated daily dose (Adjuvant Arthritic) ([1]; rat) |
| --- | --- | --- | --- | --- | --- |
| CC(=O)Oc1ccccc1C(=O)O [Aspirin, reference compound] | 305 mg/kg | 135 mg/kg |  |  |  |
| FC(F)C(F)(F)Sc1nc2c([nH]1)C(c1ccccc1)c1ccccc1-2 (stereo not drawn) [Example 1, 1,8-Dihydro(or 3,8-dihydro)-2-[(1,1,2,2-tetrafluoroethyl)thio]-8-phenyl-indeno[1,2-d]imidazole] |  |  | 0.79 mg/kg | 0.16 mg/kg |  |
| O=S(=O)(c1nc2c([nH]1)C(c1ccccc1)c1ccccc1-2)C(F)(F)C(F)F (stereo not drawn) [Example 2, 1,8-Dihydro(or 3,8-dihydro)-2-[(1,1,2,2-tetrafluoroethyl)sulfonyl]-8-phenyl-indeno[1,2-d]imidazole] |  |  | 0.2 mg/kg | 0.04 mg/kg |  |
| FC(F)(F)Sc1nc2c([nH]1)C(c1ccccc1)c1ccccc1-2 (stereo not drawn) [Example 3, 1,8-Dihydro(or 3,8-dihydro)-2-[(trifluoromethyl)thio]-8-phenyl-indeno[1,2-d]imidazole] |  |  | 1.1 mg/kg | 0.26 mg/kg |  |
| O=S(=O)(c1nc2c([nH]1)C(c1ccccc1)c1ccccc1-2)C(F)(F)F (stereo not drawn) [Example 4, 1,8-Dihydro(or 3,8-dihydro)-2-[(trifluoromethyl)sulfonyl]-8-phenyl-indeno[1,2-d]imidazole] |  |  | 1.35 mg/kg | 0.04 mg/kg |  |
| [O-][S+](c1nc2c([nH]1)C(c1ccccc1)c1ccccc1-2)C(F)(F)F (stereo not drawn) [Example 5, 1,8-Dihydro(or 3,8-dihydro)-2-[(trifluoromethyl)sulfinyl]-8-phenyl-indeno[1,2-d]imidazole] |  |  | 0.62 mg/kg | 0.057 mg/kg |  |
| CSc1nc2c([nH]1)C(c1ccccc1)c1ccccc1-2 (stereo not drawn) [Example 6, 1,8-Dihydro(or 3,8-dihydro)-2-(methylthio)-8-phenyl-indeno[1,2-d]imidazole] |  |  | 50 mg/kg | 27 mg/kg |  |
| CS(=O)(=O)c1nc2c([nH]1)C(c1ccccc1)c1ccccc1-2 (stereo not drawn) [Example 7, 1,8-Dihydro(or 3,8-dihydro)-2-(methylsulfonyl)-8-phenyl-indeno[1,2]-dimidazole] |  |  | 19 mg/kg | 14 mg/kg |  |
| COc1ccc2c(c1)C(c1ccccc1)c1[nH]c(SC(F)(F)F)nc1-2 (stereo not drawn) [Example 8] |  |  | 10.5 mg/kg | 2.4 mg/kg |  |
| COc1cccc2c1-c1nc(SC(F)(F)F)[nH]c1C2c1ccccc1 (stereo not drawn) [Example 9] |  |  | > 9 mg/kg | 8.3 mg/kg |  |
| FC(F)(F)Sc1nc2c([nH]1)C(c1ccc(Cl)c(Cl)c1)c1ccccc1-2 (stereo not drawn) [Example 10] |  |  |  | 1.3 mg/kg | 44% |
| CCSc1nc2c([nH]1)C(c1ccccc1)c1ccccc1-2 (stereo not drawn) [Example 11] |  |  | 14 mg/kg | 14 mg/kg |  |
| CCCCSc1nc2c([nH]1)C(c1ccccc1)c1ccccc1-2 (stereo not drawn) [Example 12] |  |  | > 27 mg/kg | 65 mg/kg |  |
| COc1ccc(C2c3ccccc3-c3nc(SC(F)(F)F)[nH]c32)cc1 (stereo not drawn) [Example 13] |  |  | 3.2 mg/kg | 0.147 mg/kg |  |
| COc1ccc(C2c3ccccc3-c3nc(S(=O)(=O)C(F)(F)F)[nH]c32)cc1 (stereo not drawn) [Example 14] |  |  | 0.5 mg/kg | 0.2 mg/kg |  |
| Cc1ccc2c(c1)-c1nc(SC(F)(F)C(F)F)[nH]c1C2c1ccccc1 (stereo not drawn) [Example 15] |  |  | 3.6 mg/kg | 5 mg/kg |  |
| Cc1ccc2c(c1)-c1nc(S(=O)(=O)C(F)(F)C(F)F)[nH]c1C2c1ccccc1 (stereo not drawn) [Example 16] |  |  |  | 0.064 mg/kg | 39% |
| Fc1ccc(C2c3ccccc3-c3nc(SC(F)(F)F)[nH]c32)cc1 (stereo not drawn) [Example 17] |  |  | 2.4 mg/kg | 0.14 mg/kg |  |
| CC(C)Cc1ccc(C(C)C(=O)O)cc1 (stereo not drawn) [Ibuprofen, reference compound] |  |  | 100 mg/kg | 10 mg/kg |  |
| COc1ccc2c(c1)c(CC(=O)O)c(C)n2C(=O)c1ccc(Cl)cc1 [Indomethacin, reference compound] | 0.3 mg/kg | 0.35 mg/kg |  |  |  |
| CCCCC1C(=O)N(c2ccccc2)N(c2ccccc2)C1=O [Phenylbutazone, phenylbutazone, reference compound] |  |  | 10 mg/kg | 80 mg/kg |  |
